From patent publication US11345711B2, “8,9-dihydroimidazo[1,2-a]pyrimido[5,4-e]pyrimidin-5(6H)-ones” (IMPACT THERAPEUTICS (SHANGHAI), INC, priority 2016, dated 2022)
Read-outs that look alike come from different tables or passages of the source.

Assays:
NCI-H1299 cells = assay: MTT based cell viability assay on NCI-H1299 cells; settings: Homo sapiens, read-out: IC50, growth inhibition of NCI-H1299 cells
In short: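 NCI-H1299 cells (1000/well, settled overnight) were exposed for 3 d at 37 °C, 5% CO2, to an eight-point series of 10 μM to 0.01 μM plus DMSO blank, as prepared in DMSO (final DMSO 1‰). MTT (0.5 mg/mL, 4 h) was read at 552/630/690 nm. IC50 came from sigmoidal dose-response fits of survival.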

Wee1 (h) = Wee1 (h) (Homo sapiens, UniProt P30291); assay: Wee1 kinase (h) detection method, [γ-33P]-ATP filter assay; assay type: biochemical
Chain of Wee1 (h) (P30291 whole entry): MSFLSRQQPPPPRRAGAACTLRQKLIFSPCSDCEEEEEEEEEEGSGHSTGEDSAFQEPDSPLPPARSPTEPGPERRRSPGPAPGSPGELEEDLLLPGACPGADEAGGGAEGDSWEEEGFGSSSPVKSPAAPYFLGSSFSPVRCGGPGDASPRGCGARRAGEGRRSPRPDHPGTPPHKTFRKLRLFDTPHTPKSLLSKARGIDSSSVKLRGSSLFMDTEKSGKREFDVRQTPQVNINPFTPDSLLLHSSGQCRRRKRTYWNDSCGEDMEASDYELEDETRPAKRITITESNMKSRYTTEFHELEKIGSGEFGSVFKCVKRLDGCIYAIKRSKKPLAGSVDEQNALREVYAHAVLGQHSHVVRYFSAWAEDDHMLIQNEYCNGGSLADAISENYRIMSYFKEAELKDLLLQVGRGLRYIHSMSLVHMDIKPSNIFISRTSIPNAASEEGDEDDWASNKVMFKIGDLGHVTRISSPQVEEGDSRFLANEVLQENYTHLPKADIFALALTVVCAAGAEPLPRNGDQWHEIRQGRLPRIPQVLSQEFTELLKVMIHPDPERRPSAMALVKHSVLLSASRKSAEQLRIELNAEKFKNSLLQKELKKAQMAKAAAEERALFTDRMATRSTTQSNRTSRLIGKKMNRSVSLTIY

LoVo cells = assay: MTT based cell viability assay on LoVo cells; settings: Homo sapiens, LoVo, 72 h, 3 d, read-out: IC50, growth inhibition of LoVo cells
In short: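 Inhibition of LoVo proliferation was derived as IC50 from a sigmoidal dose-response fit of cell survival. Readout was MTT (0.5 mg/mL, 4 h) with absorbance at 552/630/690 nm, after 3-day treatment at 37 °C. Eight-point series from 10 μM to 0.01 μM, DMSO control, 1% DMSO final.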

IC50 (NCI-H1299 cells; NCI-H1299, NCI-H1299 cells) | Inh. (%) of Wee1 kinase enzyme activity (Wee1 (h); C 0.01 μm compound) | Inh. (%) of Wee1 kinase enzyme activity (Wee1 (h); C 0.1 μm compound) | Inh. (%) of Wee1 kinase enzyme activity (Wee1 (h); C 1 μm compound) | IC50 (LoVo cells) | IC50 (NCI-H1299 cells; NCI-H1299 cells) | Compound
0.198 µM | 22% | 74% | 97% | 0.0488 µM | – | Cc1cc(Nc2ncc3c(n2)N2CCN=C2N(c2c(Cl)cccc2Cl)C3=O)ccc1N1CCN(C(C)C)CC1 [Example 76, 6-(2,6-Dichlorophenyl)-2-((4-(4-isopropylpiperazin-1-yl)-3-methylphenyl)amino)-8,9-dihydroimidazo[1,2-a]pyrimido[5,4-e]pyrimidin-5(6H)-one]
0.217 µM | 11% | 86% | 88% | 0.0524 µM | – | Cc1cc(Nc2ncc3c(n2)N2CCN=C2N(c2c(Cl)cccc2Cl)C3=O)ccc1N1C[C@@H](C)N(C)[C@@H](C)C1 [Example 77, 6-(2,6-Dichlorophenyl)-2-((3-methyl-4-((3S,5R)-3,4,5-trimethylpiperazin-1-yl)phenyl)amino)-8,9-dihydroimidazo[1,2-a]pyrimido[5,4-e]pyrimidin-5(6H)-one]
0.149 µM | 29% | 77% | 100% | 0.0414 µM | – | Cc1cc(Nc2ncc3c(n2)N2CCN=C2N(c2c(Cl)cccc2Cl)C3=O)ccc1N1C[C@@H](C)N(C(C)C)[C@@H](C)C1 [Example 78, 6-(2,6-Dichlorophenyl)-2-((4-((3S,5R)-4-isopropyl-3,5-dimethylpiperazin-1-yl)-3-methylphenyl)amino)-8,9-dihydroimidazo[1,2-a]pyrimido[5,4-e]pyrimidin-5(6H)-one]
– | – | – | 69% | > 100 µM | > 10 µM | CN1CCn2nc(Nc3ncc4c(n3)N3CCN=C3N(c3c(Cl)cccc3Cl)C4=O)cc2C1 [Example 79, 6-(2,6-Dichlorophenyl)-2-((5-methyl-4,5,6,7-tetrahydropyrazolo[1,5-a]pyrazin-2-yl)amino)-8,9-dihydroimidazo[1,2-a]pyrimido[5,4-e]pyrimidin-5(6H)-one]
0.978 µM | – | – | 80% | 0.539 µM | – | Cc1cc(Nc2ncc3c(n2)N2CCN=C2N(c2c(Cl)cccc2C(F)(F)F)C3=O)ccc1N1CCN(C)CC1 [Example 80, 6-(2-Chloro-6-(trifluoromethyl)phenyl)-2-((3-methyl-4-(4-methylpiperazin-1-yl)phenyl)amino)-8,9-dihydroimidazo[1,2-a]pyrimido[5,4-e]pyrimidin-5(6H)-one]
0.31 µM | 7% | 72% | 89% | 0.135 µM | – | Cc1cc(Nc2ncc3c(n2)N2CCN=C2N(c2c(C)cccc2Cl)C3=O)ccc1N1CCN(C)CC1 [Example 81, 6-(2-Chloro-6-methylphenyl)-2-((3-methyl-4-(4-methylpiperazin-1-yl)phenyl)amino)-8,9-dihydroimidazo[1,2-a]pyrimido[5,4-e]pyrimidin-5(6H)-one]
– | – | – | 83% | 0.946 µM | 1.2 µM | COc1cccc(Cl)c1N1C(=O)c2cnc(Nc3ccc(N4CCN(C)CC4)c(C)c3)nc2N2CCN=C21 [Example 82, 6-(2-Chloro-6-methoxyphenyl)-2-((3-methyl-4-(4-methylpiperazin-1-yl)phenyl)amino)-8,9-dihydroimidazo[1,2-a]pyrimido[5,4-e]pyrimidin-5(6H)-one]
– | 15% | 59% | 94% | 2.9 µM | 1.44 µM | Cc1cccc(C)c1N1C(=O)c2cnc(Nc3ccc(N4CCN(C)CC4)cc3)nc2N2CCN=C21 [Example 83, 6-(2,6-Dimethylphenyl)-2-((4-(4-methylpiperazin-1-yl)phenyl)amino)-8,9-dihydroimidazo[1,2-a]pyrimido[5,4-e]pyrimidin-5(6H)-one]
– | 18% | 49% | 93% | 3.06 µM | 0.836 µM | Cc1cccc(C)c1N1C(=O)c2cnc(Nc3ccc(N4C[C@@H](C)N(C)[C@@H](C)C4)cc3)nc2N2CCN=C21 [Example 84, 6-(2,6-Dimethylphenyl)-2-((4-((3S,5R)-3,4,5-trimethylpiperazin-1-yl)phenyl)amino)-8,9-dihydroimidazo[1,2-a]pyrimido[5,4-e]pyrimidin-5(6H)-one]
– | – | – | 17% | > 100 µM | > 10 µM | CN1CCN(c2ccc(Nc3ncc4c(n3)N3CCN=C3N(c3ccc(Cl)cc3)C4=O)cc2)CC1 [Example 85, 6-(4-Chlorophenyl)-2-((4-(4-methylpiperazin-1-yl)phenyl)amino)-8,9-dihydroimidazo[1,2-a]pyrimido[5,4-e]pyrimidin-5(6H)-one]
– | – | – | 13% | > 100 µM | > 10 µM | CN1CCN(c2ccc(Nc3ncc4c(n3)N3CCN=C3N(c3cccc(Cl)c3)C4=O)cc2)CC1 [Example 86, 6-(3-Chlorophenyl)-2-((4-(4-methylpiperazin-1-yl)phenyl)amino)-8,9-dihydroimidazo[1,2-a]pyrimido[5,4-e]pyrimidin-5(6H)-one]
– | – | – | 75% | > 100 µM | > 10 µM | CN1CCN(c2ccc(Nc3ncc4c(n3)N3CCN=C3N(c3ccc(Cl)cc3Cl)C4=O)cc2)CC1 [Example 87, 6-(2,4-Dichlorophenyl)-2-((4-(4-methylpiperazin-1-yl)phenyl)amino)-8,9-dihydroimidazo[1,2-a]pyrimido[5,4-e]pyrimidin-5(6H)-one]
– | – | – | 75% | > 100 µM | > 3 µM | CN1CCN(c2ccc(Nc3ncc4c(n3)N3CCN=C3N(c3ccc(F)cc3Cl)C4=O)cc2)CC1 [Example 88, 6-(2-Chloro-4-fluorophenyl)-2-((4-(4-methylpiperazin-1-yl)phenyl)amino)-8,9-dihydroimidazo[1,2-a]pyrimido[5,4-e]pyrimidin-5(6H)-one]
– | – | – | 89% | 0.22 µM | 0.957 µM | CN1CCN(c2ccc(Nc3ncc4c(n3)N3CCN=C3N(c3cccc(F)c3Cl)C4=O)cc2)CC1 [Example 89, 6-(2-Chloro-3-fluorophenyl)-2-((4-(4-methylpiperazin-1-yl)phenyl)amino)-8,9-dihydroimidazo[1,2-a]pyrimido[5,4-e]pyrimidin-5(6H)-one]
– | – | – | 29% | 1.31 µM | > 10 µM | CN1CCN(c2ccc(Nc3ncc4c(n3)N3CCN=C3N(c3cc(Cl)ccc3Cl)C4=O)cc2)CC1 [Example 90, 6-(2,5-Dichlorophenyl)-2-((4-(4-methylpiperazin-1-yl)phenyl)amino)-8,9-dihydroimidazo[1,2-a]pyrimido[5,4-e]pyrimidin-5(6H)-one]
– | – | – | 75% | 0.185 µM | 2.36 µM | CN1CCN(c2ccc(Nc3ncc4c(n3)N3CCN=C3N(c3cccc(Cl)c3Cl)C4=O)cc2)CC1 [Example 91, 6-(2,3-Dichlorophenyl)-2-((4-(4-methylpiperazin-1-yl)phenyl)amino)-8,9-dihydroimidazo[1,2-a]pyrimido[5,4-e]pyrimidin-5(6H)-one]
– | – | – | 1% | > 100 µM | > 10 µM | CN1CCN(c2ccc(Nc3ncc4c(n3)N3CCN=C3N(c3ncccn3)C4=O)cc2)CC1 [Example 92, 6-(Pyrimidin-2-yl)-2-((4-(4-methylpiperazin-1-yl)phenyl)amino)-8,9-dihydroimidazo[1,2-a]pyrimido[5,4-e]pyrimidin-5(6H)-one]
– | – | – | 0% | > 100 µM | > 10 µM | CN1CCN(c2ccc(Nc3ncc4c(n3)N3CCN=C3NC4=O)cc2)CC1 [Example 93, 2-((4-(4-Methylpiperazin-1-yl)phenyl)amino)-8,9-dihydroimidazo[1,2-a]pyrimido[5,4-e]pyrimidin-5(6H)-one]
– | – | – | 19% | 1.91 µM | 2.39 µM | CN1CCN(c2ccc(Nc3ncc4c(n3)N3CCN=C3N(C3CCC3)C4=O)cc2)CC1 [Example 94, 6-Cyclobutyl-2-((4-(4-methylpiperazin-1-yl)phenyl)amino)-8,9-dihydroimidazo[1,2-a]pyrimido[5,4-e]pyrimidin-5(6H)-one]
– | – | – | 8% | 1.88 µM | 2.13 µM | CN1CCN(c2ccc(Nc3ncc4c(n3)N3CCN=C3N(C3CCCC3)C4=O)cc2)CC1 [Example 95, 6-Cyclopentyl-2-((4-(4-methylpiperazin-1-yl)phenyl)amino)-8,9-dihydroimidazo[1,2-a]pyrimido[5,4-e]pyrimidin-5(6H)-one]
– | – | – | 29% | > 100 µM | > 10 µM | CN1CCN(c2ccc(Nc3ncc4c(n3)N3CCN=C3N(c3ccccc3)C4=O)cc2)CC1 [Example 96, 6-Phenyl-2-((4-(4-methylpiperazin-1-yl)phenyl)amino)-8,9-dihydroimidazo[1,2-a]pyrimido[5,4-e]pyrimidin-5(6H)-one]
– | – | – | 9% | > 100 µM | > 10 µM | CN1CCN(c2ccc(Nc3ncc4c(n3)N3CCN=C3N(c3ccccn3)C4=O)cc2)CC1 [Example 97, 6-(Pyridin-2-yl)-2-((4-(4-methylpiperazin-1-yl)phenyl)amino)-8,9-dihydroimidazo[1,2-a]pyrimido[5,4-e]pyrimidin-5(6H)-one]
